Source: patent US6440440B1, “Biocidal benzylbiphenyl derivatives” (priority 1998, dated 2002)

How the values were obtained:
Type in all cases: cell-based
Debaryomyces hansenii = assay: Screening against yeasts; parameters: key: 3 = complete inhibition of growth, 2 = growth partially controlled; settings: test compound concentration 500 μM
Description: (§1) The stock solutions with the test compounds were pipetted into multiwell plates and mixed with warm tryptose broth agar (2.6%) in order to reach a test compound concentration of 500 μMol. The medium was allowed to cool and subsequently inoculated with the bacteria. Wells were placed in an incubator at 27° C. and a relative humidity of 70%. After sufficient growth of the untreated cultures, the test was evaluated.
(§2) 3: complete inhibition of bacterial growth
(§3) 2: bacterial growth partially controlled
(§4) A number of compounds of formula (I) were also tested in a screening against certain The test conditions are the same as described in biological example C.1. The concentration of the test compound was also 500 μmol, and the scoring system used was also the same.
Debaryomyces hansenii (19)

Providencia rettgeri = assay: Poison plate assay, combinations with BAC; settings: for Calculated activity: Limpel's formula
Description: (§5) Biocidal activity against bacterial/yeast growth was determined with the poison plate assay. To obtain the required concentrations of the test compound, calculated amounts of stock solutions (DMSO) were pipetted into multi-well plates. Tryptose agar (except for Rhodotorula: PDA) was added aseptically and uniform distribution was obtained by shaking. Each plate was inoculated with a bacterial/yeast suspension. After incubation at 27° C. and 70% relative humidity, for a period long enough to allow complete growth of controls, percentage activity as compared to the control was scored.
(§6) Possible synergy was investigated using Limpel's formula (Richter, D. L., Pestic. Sci. 1987, 19: 309-315): [formula]
(§7) where EC is the expected additive response, or calculated activity, X is the observed percentage control when compound A is applied alone and Y is the observed percentage control when compound B is applied alone. Synergy was considered to occur when the observed effect, or measured activity, of a combination of both compounds was greater than the corresponding EC value.
The table C.7 to C.8 below enumerate the measured and calculated activities of BAC and compounds 20, 42 and 40 when tested as a single test compound or as a combination against Providencia rettgeri. BAC (benzalconium chloride) is a well-bacteride and was tested at a concentration of 40 and 80 μmol. Compounds 20, 40 and 42 were tested at a concentration of 10, 20, 40, 80 and 160 μmol. When a synergistic effect was observed, the “measured” and “calculated” activity are indicated with a bold typeface.

Rhodotorula rubra [1] = assay: Screening against yeasts; parameters: key: 3 = complete inhibition of growth, 2 = growth partially controlled; settings: test compound concentration 500 μmol
Description: as §1, §2, §3, §4

Sporobolomyces roseus = assay: Screening against yeasts; parameters: key: 3 = complete inhibition of growth, 2 = growth partially controlled; settings: test compound concentration 500 μmol
Description: as §1, §2, §3, §4
Sporobolomyces roseus (21)

Pseudomonas aeruginosa = assay: Primary bacteria screening; parameters: key: score: 3 = complete inhibition of growth, 2 = growth partially controlled; settings: test compound concentration 500 μMol in tryptose broth agar, 27° C.
Description: as §1, §2, §3

Escherichia coli = assay: Primary bacteria screening; parameters: key: score: 3 = complete inhibition of growth, 2 = growth partially controlled; settings: test compound concentration 500 μMol in tryptose broth agar, 27° C.
Description: as §1, §2, §3

Cellulomonas flavigena = assay: Poison plate assay, synergistic effect in combinations with BIT; settings: for Calculated activity: Limpel's formula
Description: as §5, §6, §7
(§8) The table C.4 to C.6 below enumerate the measured and calculated activities of BIT and compounds 20, 42 and 40 when tested as a single test compound or as a combination against Rhodotorula rubra or Cellulomonas flavigena. BIT (1,2-benzisothiazol-3(2H)-one) is a well-known bacteride and was tested at a concentration of 25 and 50 μmol. Compounds 20, 40 and 42 were tested at a concentration of 25, 50 and 75 μmol. When a synergistic effect was observed, the “measured” and “calculated” activity are indicated with a bold typeface.

Rhodotorula rubra [2] = assay: as above; settings: for Calculated activity: Limpel's formula
Description: as §5, §6, §7, §8

[3] = BAC 40 μmol + compound 160 μmol
[4] = BAC 80 μmol + compound 160 μmol
[5] = combination BAC 40 μmol + compound 10 μmol
[6] = combination BAC 40 μmol + compound 20 μmol
[7] = combination BAC 40 μmol + compound 40 μmol
[8] = combination BAC 40 μmol + compound 80 μmol
[9] = combination BAC 40 μmol + compound 160 μmol
[10] = combination BAC 80 μmol + compound 10 μmol
[11] = combination BAC 80 μmol + compound 20 μmol
[12] = combination BAC 80 μmol + compound 40 μmol
[13] = combination BAC 80 μmol + compound 80 μmol
[14] = combination BAC 80 μmol + compound 160 μmol
[15] = combination BIT 25 μmol + compound 25 μmol
[16] = combination BIT 25 μmol + compound 50 μmol
[17] = combination BIT 25 μmol + compound 75 μmol
[18] = combination BIT 50 μmol + compound 25 μmol
[19] = combination BIT 50 μmol + compound 50 μmol
[20] = combination BIT 50 μmol + compound 75 μmol

With `Cl.Cl.O.c1ccc(-c2ccc(C(c3ccccc3)C3CCN(C4CCNCC4)CC3)cc2)cc1` (racemic) [Co. No. 20, (±)-4-[[(1,1′-biphenyl)-4-yl]phenylmethyl](1,4′-bipiperidine)dihydrochloride monohydrate] the “Test yeast (19) Debaryomyces hansenii (score)” value (Debaryomyces hansenii) was 3, the Calculated activity (Providencia rettgeri; BAC 40 μmol + compound 10 μmol) was 0% and the Calculated activity (Providencia rettgeri; BAC 40 μmol + compound 20 μmol) was 0%. For the same compound, the Calculated activity (Providencia rettgeri; BAC 40 μmol + compound 40 μmol) was 30%, the Calculated activity (Providencia rettgeri; BAC 40 μmol + compound 80 μmol) was 90% and the Calculated activity (Providencia rettgeri; [3]) was 100%. For the same compound, the Calculated activity (Providencia rettgeri; BAC 80 μmol + compound 10 μmol) was 100%, the Calculated activity (Providencia rettgeri; BAC 80 μmol + compound 20 μmol) was 100% and the Calculated activity (Providencia rettgeri; BAC 80 μmol + compound 40 μmol) was 100%. For the same compound, the Calculated activity (Providencia rettgeri; BAC 80 μmol + compound 80 μmol) was 100%, the Calculated activity (Providencia rettgeri; [4]) was 100% and the Measured activity (Providencia rettgeri; [5]) was 50%. It also gave a Measured activity (Providencia rettgeri; [6]) of 50%, a Measured activity (Providencia rettgeri; [7]) of 100% and a Measured activity (Providencia rettgeri; [8]) of 100%. For the same compound, the Measured activity (Providencia rettgeri; [9]) was 100%, the Measured activity (Providencia rettgeri; [10]) was 100% and the Measured activity (Providencia rettgeri; [11]) was 100%. For the same compound, the Measured activity (Providencia rettgeri; [12]) was 100%, the Measured activity (Providencia rettgeri; [13]) was 100% and the Measured activity (Providencia rettgeri; [14]) was 100%. It also gave a Measured activity (Providencia rettgeri; compound alone 10 μmol) of 0%, a Measured activity (Providencia rettgeri; compound alone 20 μmol) of 0% and a Measured activity (Providencia rettgeri; compound alone 40 μmol) of 30%. The Measured activity (Providencia rettgeri; compound alone 80 μmol) was 90%, the Measured activity (Providencia rettgeri; compound alone 160 μmol) was 100% and the “Test yeast (20) Rhodotorula rubra (score)” value (Rhodotorula rubra [1]) was 3. For the same compound, the “Test yeast (21) Sporobolomyces roseus (score)” value (Sporobolomyces roseus) was 3, the “P. aeruginosa (growth inhibition score)” value (Pseudomonas aeruginosa) was 3 and the “E. coli (growth inhibition score)” value (Escherichia coli) was 3. For the same compound, the Calculated activity (Cellulomonas flavigena; BIT 25 μmol + compound 25 μmol) was 0%, the Calculated activity (Cellulomonas flavigena; BIT 25 μmol + compound 50 μmol) was 0% and the Calculated activity (Cellulomonas flavigena; BIT 25 μmol + compound 75 μmol) was 0%. For the same compound, the Calculated activity (Cellulomonas flavigena; BIT 50 μmol + compound 25 μmol) was 100%, the Calculated activity (Cellulomonas flavigena; BIT 50 μmol + compound 50 μmol) was 100% and the Calculated activity (Cellulomonas flavigena; BIT 50 μmol + compound 75 μmol) was 100%. It also gave a Measured activity (Cellulomonas flavigena; [15]) of 0%, a Measured activity (Cellulomonas flavigena; [16]) of 100% and a Measured activity (Cellulomonas flavigena; [17]) of 95%. For the same compound, the Measured activity (Cellulomonas flavigena; [18]) was 100%, the Measured activity (Cellulomonas flavigena; [19]) was 100% and the Measured activity (Cellulomonas flavigena; [20]) was 100%. For the same compound, the Measured activity (Cellulomonas flavigena; compound alone 25 μmol) was 0%, the Measured activity (Cellulomonas flavigena; compound alone 50 μmol) was 0% and the Measured activity (Cellulomonas flavigena; compound alone 75 μmol) was 0%. It also gave a Calculated activity (Rhodotorula rubra [2]; BIT 25 μmol + compound 25 μmol) of 0%, a Calculated activity (Rhodotorula rubra [2]; BIT 25 μmol + compound 50 μmol) of 0% and a Calculated activity (Rhodotorula rubra [2]; BIT 25 μmol + compound 75 μmol) of 0%. It also gave a Calculated activity (Rhodotorula rubra [2]; BIT 50 μmol + compound 25 μmol) of 0%, a Calculated activity (Rhodotorula rubra [2]; BIT 50 μmol + compound 50 μmol) of 0% and a Calculated activity (Rhodotorula rubra [2]; BIT 50 μmol + compound 75 μmol) of 0%. For the same compound, the Measured activity (Rhodotorula rubra [2]; [15]) was 0%, the Measured activity (Rhodotorula rubra [2]; [16]) was 100% and the Measured activity (Rhodotorula rubra [2]; [17]) was 100%. The Measured activity (Rhodotorula rubra [2]; [18]) was 100%, the Measured activity (Rhodotorula rubra [2]; [19]) was 100% and the Measured activity (Rhodotorula rubra [2]; [20]) was 100%. The Measured activity (Rhodotorula rubra [2]; compound alone 25 μmol) was 0%, the Measured activity (Rhodotorula rubra [2]; compound alone 50 μmol) was 0% and the Measured activity (Rhodotorula rubra [2]; compound alone 75 μmol) was 0%.
`O=c1[nH]sc2ccccc12` [BIT, 1,2-benzisothiazol-3(2H)-one, reference compound] gave a Measured activity (Cellulomonas flavigena; BIT alone 25 μmol) of 0%, a Measured activity (Cellulomonas flavigena; BIT alone 50 μmol) of 100% and a Measured activity (Rhodotorula rubra [2]; BIT alone 25 μmol) of 0%. It also gave a Measured activity (Rhodotorula rubra [2]; BIT alone 50 μmol) of 0%.
For `Cl.Cl.NCCCNCCC(c1ccccc1)c1ccc(-c2ccccc2)cc1` (stereo not shown) [Co. No. 40], the “Test yeast (19) Debaryomyces hansenii (score)” value (Debaryomyces hansenii) was 3, the Calculated activity (Providencia rettgeri; BAC 40 μmol + compound 10 μmol) was 50% and the Calculated activity (Providencia rettgeri; BAC 40 μmol + compound 20 μmol) was 50%. For the same compound, the Calculated activity (Providencia rettgeri; BAC 40 μmol + compound 40 μmol) was 95%, the Calculated activity (Providencia rettgeri; BAC 40 μmol + compound 80 μmol) was 100% and the Calculated activity (Providencia rettgeri; [3]) was 100%. The Calculated activity (Providencia rettgeri; BAC 80 μmol + compound 10 μmol) was 100%, the Calculated activity (Providencia rettgeri; BAC 80 μmol + compound 20 μmol) was 100% and the Calculated activity (Providencia rettgeri; BAC 80 μmol + compound 40 μmol) was 100%. It also gave a Calculated activity (Providencia rettgeri; BAC 80 μmol + compound 80 μmol) of 100%, a Calculated activity (Providencia rettgeri; [4]) of 100% and a Measured activity (Providencia rettgeri; [5]) of 100%. For the same compound, the Measured activity (Providencia rettgeri; [6]) was 100%, the Measured activity (Providencia rettgeri; [7]) was 100% and the Measured activity (Providencia rettgeri; [8]) was 100%. The Measured activity (Providencia rettgeri; [9]) was 100%, the Measured activity (Providencia rettgeri; [10]) was 100% and the Measured activity (Providencia rettgeri; [11]) was 100%. It also gave a Measured activity (Providencia rettgeri; [12]) of 100%, a Measured activity (Providencia rettgeri; [13]) of 100% and a Measured activity (Providencia rettgeri; [14]) of 100%. The Measured activity (Providencia rettgeri; compound alone 10 μmol) was 0%, the Measured activity (Providencia rettgeri; compound alone 20 μmol) was 0% and the Measured activity (Providencia rettgeri; compound alone 40 μmol) was 90%. For the same compound, the Measured activity (Providencia rettgeri; compound alone 80 μmol) was 100%, the Measured activity (Providencia rettgeri; compound alone 160 μmol) was 100% and the “Test yeast (20) Rhodotorula rubra (score)” value (Rhodotorula rubra [1]) was 3. The “Test yeast (21) Sporobolomyces roseus (score)” value (Sporobolomyces roseus) was 3, the “P. aeruginosa (growth inhibition score)” value (Pseudomonas aeruginosa) was 3 and the “E. coli (growth inhibition score)” value (Escherichia coli) was 3.
`Cl.Cl.NCCCN1CCC(C(c2ccccc2)c2ccc(-c3ccccc3)cc2)CC1.O` (stereo not shown) [Co. No. 42] was tested, and the “Test yeast (19) Debaryomyces hansenii (score)” value (Debaryomyces hansenii) was 3, the Calculated activity (Providencia rettgeri; BAC 40 μmol + compound 10 μmol) was 0% and the Calculated activity (Providencia rettgeri; BAC 40 μmol + compound 20 μmol) was 0%. The Calculated activity (Providencia rettgeri; BAC 40 μmol + compound 40 μmol) was 30%, the Calculated activity (Providencia rettgeri; BAC 40 μmol + compound 80 μmol) was 90% and the Calculated activity (Providencia rettgeri; [3]) was 100%. For the same compound, the Calculated activity (Providencia rettgeri; BAC 80 μmol + compound 10 μmol) was 100%, the Calculated activity (Providencia rettgeri; BAC 80 μmol + compound 20 μmol) was 100% and the Calculated activity (Providencia rettgeri; BAC 80 μmol + compound 40 μmol) was 100%. It also gave a Calculated activity (Providencia rettgeri; BAC 80 μmol + compound 80 μmol) of 100%, a Calculated activity (Providencia rettgeri; [4]) of 100% and a Measured activity (Providencia rettgeri; [5]) of 50%. It also gave a Measured activity (Providencia rettgeri; [6]) of 50%, a Measured activity (Providencia rettgeri; [7]) of 100% and a Measured activity (Providencia rettgeri; [8]) of 100%. It also gave a Measured activity (Providencia rettgeri; [9]) of 100%, a Measured activity (Providencia rettgeri; [10]) of 100% and a Measured activity (Providencia rettgeri; [11]) of 100%. The Measured activity (Providencia rettgeri; [12]) was 100%, the Measured activity (Providencia rettgeri; [13]) was 100% and the Measured activity (Providencia rettgeri; [14]) was 100%. For the same compound, the Measured activity (Providencia rettgeri; compound alone 10 μmol) was 0%, the Measured activity (Providencia rettgeri; compound alone 20 μmol) was 0% and the Measured activity (Providencia rettgeri; compound alone 40 μmol) was 30%. For the same compound, the Measured activity (Providencia rettgeri; compound alone 80 μmol) was 90%, the Measured activity (Providencia rettgeri; compound alone 160 μmol) was 100% and the “Test yeast (20) Rhodotorula rubra (score)” value (Rhodotorula rubra [1]) was 3. The “Test yeast (21) Sporobolomyces roseus (score)” value (Sporobolomyces roseus) was 3, the “P. aeruginosa (growth inhibition score)” value (Pseudomonas aeruginosa) was 3 and the “E. coli (growth inhibition score)” value (Escherichia coli) was 3.
